Laboratory results reported in the NIST ThermoML archive (doi:10.1016/j.jct.2010.10.016).
Numbers after ± are expanded uncertainties.

Assay: xn = mol fraction of the nth substance listed
Conditions: 101 kPa, Liquid; for mass density: Pycnometric method; for speed of sound: Resonance method; for viscosity: Capillary tube (Ostwald / Ubbelohde) method

CCCCOCCO [2-butoxyethan-1-ol] + C[N+](=O)[O-]
mass density (303.15 K, x2 = 0.4): 938.41 ± 0.51 kg/m3 | mass density (303.15 K, x2 = 0.5): 955.38 ± 0.53 kg/m3 | mass density (303.15 K, x2 = 0.6): 975.84 ± 0.55 kg/m3 | mass density (303.15 K, x2 = 0.7): 1000.85 ± 0.58 kg/m3 | mass density (303.15 K, x2 = 0.8002): 1032.09 ± 0.61 kg/m3 | mass density (303.15 K, x2 = 0.8999): 1071.54 ± 0.64 kg/m3 | mass density (303.15 K, x2 = 0.9503): 1095.83 ± 0.66 kg/m3 | speed of sound (303.15 K, x2 = 0): 1290.6 ± 2.3 m/s | speed of sound (303.15 K, x2 = 0.0507): 1289.5 ± 2.3 m/s | speed of sound (303.15 K, x2 = 0.1001): 1288.6 ± 2.3 m/s | speed of sound (303.15 K, x2 = 0.2003): 1286.3 ± 2.3 m/s | speed of sound (303.15 K, x2 = 0.3003): 1283.6 ± 2.3 m/s | speed of sound (303.15 K, x2 = 0.4005): 1281.1 ± 2.3 m/s | speed of sound (303.15 K, x2 = 0.5002): 1279.2 ± 2.3 m/s | speed of sound (303.15 K, x2 = 0.6): 1278.5 ± 2.3 m/s | speed of sound (303.15 K, x2 = 0.7): 1279.5 ± 2.3 m/s | speed of sound (303.15 K, x2 = 0.7999): 1282.9 ± 2.3 m/s | speed of sound (303.15 K, x2 = 0.8999): 1288.9 ± 2.3 m/s | speed of sound (303.15 K, x2 = 0.95): 1293.2 ± 2.4 m/s | viscosity (308.15 K, x2 = 0): 2.079 ± 0.022 mPa·s | viscosity (308.15 K, x2 = 0.0501): 1.967 ± 0.021 mPa·s | viscosity (308.15 K, x2 = 0.1048): 1.844 ± 0.019 mPa·s | viscosity (308.15 K, x2 = 0.198): 1.639 ± 0.017 mPa·s | viscosity (308.15 K, x2 = 0.3012): 1.427 ± 0.014 mPa·s | viscosity (308.15 K, x2 = 0.3999): 1.243 ± 0.012 mPa·s | viscosity (308.15 K, x2 = 0.4502): 1.154 ± 0.011 mPa·s | viscosity (308.15 K, x2 = 0.4998): 1.071 ± 0.011 mPa·s | viscosity (308.15 K, x2 = 0.5499): 0.991 ± 0.01 mPa·s | viscosity (308.15 K, x2 = 0.5998): 0.917 ± 0.009 mPa·s | viscosity (308.15 K, x2 = 0.6994): 0.786 ± 0.008 mPa·s | viscosity (308.15 K, x2 = 0.7997): 0.685 ± 0.007 mPa·s | viscosity (308.15 K, x2 = 0.8986): 0.616 ± 0.007 mPa·s | viscosity (308.15 K, x2 = 0.9465): 0.59 ± 0.006 mPa·s | mass density (308.15 K, x2 = 0): 887.83 ± 0.46 kg/m3 | mass density (308.15 K, x2 = 0.05): 891.97 ± 0.47 kg/m3 | mass density (308.15 K, x2 = 0.0999): 896.44 ± 0.48 kg/m3 | mass density (308.15 K, x2 = 0.2): 906.69 ± 0.49 kg/m3 | mass density (308.15 K, x2 = 0.3): 918.65 ± 0.51 kg/m3 | mass density (308.15 K, x2 = 0.4): 932.71 ± 0.52 kg/m3 | mass density (308.15 K, x2 = 0.5): 949.47 ± 0.54 kg/m3 | mass density (308.15 K, x2 = 0.6): 969.67 ± 0.56 kg/m3 | mass density (308.15 K, x2 = 0.7): 994.45 ± 0.58 kg/m3 | mass density (308.15 K, x2 = 0.8002): 1025.45 ± 0.62 kg/m3 | mass density (308.15 K, x2 = 0.8999): 1064.77 ± 0.65 kg/m3 | mass density (308.15 K, x2 = 0.9503): 1089.08 ± 0.67 kg/m3 | speed of sound (308.15 K, x2 = 0): 1273.5 ± 2.3 m/s | speed of sound (308.15 K, x2 = 0.0507): 1273.1 ± 2.3 m/s
